Assay results published in PubChem BioAssay AID248 (DTP/NCI, 2004).
Where “and” joins values, the source holds several entries; their conditions need not be identical. Identical values can stand only once. Toxic doses and inconclusive results are not listed. Cut-off read from the data, not from the text of the source: active = T/C of 150% or more; inactive = T/C below 125%.

Test system: L1210 leukemia ip in BDF1 mice, survival T/C
Assay: NCI In Vivo Anticancer Drug Screen. Data for tumor model L1210 Leukemia (intraperitoneal) in B6D2F1 (BDF1) mice
Conditions: endpoint: mean survival time, higher = longer survival
In short: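 Ratio derived from survival: compound-dosed mice over vehicle-dosed mice, all bearing a transplantable tumor.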

[1] = dose: 100.0 mg/kg/injection, schedule: Q01DX001 (ip), vehicle: carboxymethylcellulose (CMC)
[2] = dose: 200.0 mg/kg/injection, schedule: Q01DX001 (ip), vehicle: carboxymethylcellulose (CMC)
[3] = dose: 400.0 mg/kg/injection, schedule: Q01DX001 (ip), vehicle: carboxymethylcellulose (CMC)
[4] = dose: 25.0 mg/kg/injection, schedule: Q04DX003 (ip), vehicle: saline
[5] = dose: 100.0 mg/kg/injection, schedule: Q04DX003 (ip), vehicle: saline
[6] = dose: 100.0 mg/kg/injection, schedule: Q01DX009 (ip), vehicle: saline with Tween-80
[7] = dose: 200.0 mg/kg/injection, schedule: Q01DX009 (ip), vehicle: saline with Tween-80
[8] = dose: 100.0 mg/kg/injection, schedule: Q04DX003 (ip), vehicle: Klucel (hydroxypropylcellulose) (HPC)
[9] = dose: 200.0 mg/kg/injection, schedule: Q04DX003 (ip), vehicle: Klucel (hydroxypropylcellulose) (HPC)
[10] = dose: 400.0 mg/kg/injection, schedule: Q04DX003 (ip), vehicle: Klucel (hydroxypropylcellulose) (HPC)

Measured: T/C

COc1cc(NC(C)CCCN)c2ncccc2c1 (stereo unspecified)
inactive: dose: 25.0 mg/kg/injection, schedule: Q04DX003 (ip), vehicle: saline with Tween-80 104 % of control | dose: 50.0 mg/kg/injection, schedule: Q04DX003 (ip), vehicle: saline with Tween-80 95 % of control | dose: 100.0 mg/kg/injection, schedule: Q04DX003 (ip), vehicle: saline with Tween-80 95 % of control and 105 % of control

Cc1ccc(-n2c(O)c(N=Nc3ccc(Cl)cc3)c(=O)n(-c3ccc(C)cc3)c2=S)cc1
inactive: dose: 37.5 mg/kg/injection, schedule: Q01DX001 (ip), vehicle: Klucel (hydroxypropylcellulose) (HPC) 97 % of control | dose: 75.0 mg/kg/injection, schedule: Q01DX001 (ip), vehicle: Klucel (hydroxypropylcellulose) (HPC) 107 % of control | dose: 150.0 mg/kg/injection, schedule: Q01DX001 (ip), vehicle: Klucel (hydroxypropylcellulose) (HPC) 96 % of control

CC1(c2ccccc2)NC(=O)N(CCC#N)C1=O (stereo unspecified)
inactive: dose: 100.0 mg/kg/injection, schedule: Q04DX003 (ip), vehicle: acetone 100 % of control | dose: 200.0 mg/kg/injection, schedule: Q04DX003 (ip), vehicle: acetone 90 % of control | dose: 400.0 mg/kg/injection, schedule: Q04DX003 (ip), vehicle: acetone 104 % of control

Cc1c2oc3c(C)ccc(C(=O)OCCN4CCCC4)c3nc-2c(C(=O)OCCN2CCCC2)c(N)c1=O
inactive: dose: 100.0 mg/kg/injection, schedule: Q04DX002 (ip), vehicle: saline with Tween-80 98 % of control | dose: 200.0 mg/kg/injection, schedule: Q04DX002 (ip), vehicle: saline with Tween-80 106 % of control | dose: 400.0 mg/kg/injection, schedule: Q04DX002 (ip), vehicle: saline with Tween-80 98 % of control

Cc1ccc(S(=O)(=O)N(C)c2ccc(N)cc2)cc1
inactive: [1] 102 % of control | [2] 96 % of control | [3] 91 % of control

Oc1c(CN2CCCC2)cc(Nc2nccc(/C=C/c3ccc(Cl)cc3)n2)cc1CN1CCCC1
inactive: [4] 96 % of control | dose: 50.0 mg/kg/injection, schedule: Q01DX001 (ip), vehicle: saline 96 % of control | dose: 50.0 mg/kg/injection, schedule: Q04DX003 (ip), vehicle: saline 96 % of control | dose: 100.0 mg/kg/injection, schedule: Q01DX001 (ip), vehicle: saline 93 % of control | [5] 90 % of control

O=C(Nc1ccc2c(c1)Cc1cc(Br)ccc1-2)C(F)(F)F
inactive: [6] 97 % of control | [7] 92 % of control | dose: 400.0 mg/kg/injection, schedule: Q01DX009 (ip), vehicle: saline with Tween-80 94 % of control

Cc1ccc(Cl)cc1NS(=O)(=O)c1cccc([N+](=O)[O-])c1
inactive: [6] 94 % of control | [7] 90 % of control

Cc1ccc(C(=O)C2C3C=CC(C3)C2C(=O)c2ccc(C)cc2)cc1 (stereo unspecified)
inactive: dose: 75.0 mg/kg/injection, schedule: Q01DX009 (ip), vehicle: Klucel (hydroxypropylcellulose) (HPC) 95 % of control | dose: 150.0 mg/kg/injection, schedule: Q01DX009 (ip), vehicle: Klucel (hydroxypropylcellulose) (HPC) 90 % of control | dose: 300.0 mg/kg/injection, schedule: Q01DX009 (ip), vehicle: Klucel (hydroxypropylcellulose) (HPC) 95 % of control

CCOc1ccc(NC(=O)OC/C=C/c2ccccc2)cc1
inactive: dose: 50.0 mg/kg/injection, schedule: Q01DX009 (ip), vehicle: saline with Tween-80 96 % of control | [6] 93 % of control | [7] 90 % of control

CCc1ccc(NC(=S)Nc2ccccc2)cc1
inactive: dose: 100.0 mg/kg/injection, schedule: Q04DX002 (ip), vehicle: other 108 % of control | dose: 200.0 mg/kg/injection, schedule: Q04DX002 (ip), vehicle: other 90 % of control

Cc1cc(NS(=O)(=O)c2ccc(N=Nc3c(N)nc(N)nc3N)cc2)nc(C)n1
inactive: [1] 103 % of control | [2] 97 % of control | [3] 105 % of control

O=C(O)c1cccc(N=Cc2ccc3c(c2)CCC3)c1
inactive: [8] 94 % of control | [9] 94 % of control | [10] 95 % of control

CC(=O)Nc1cc2c(cc1Br)-c1ccc(F)cc1C2
inactive: dose: 200.0 mg/kg/injection, schedule: Q01DX Z (ip), vehicle: saline 98 % of control | dose: 400.0 mg/kg/injection, schedule: Q01DX Z (ip), vehicle: saline 102 % of control | dose: 800.0 mg/kg/injection, schedule: Q01DX Z (ip), vehicle: saline 110 % of control

Clc1ccc(/C=N/Nc2nc3ccccc3s2)cc1
inactive: dose: 222.0 mg/kg/injection, schedule: Q01DX Z (ip), vehicle: methylcellulose (MC) 97 % of control | dose: 333.0 mg/kg/injection, schedule: Q01DX Z (ip), vehicle: methylcellulose (MC) 101 % of control | dose: 500.0 mg/kg/injection, schedule: Q01DX Z (ip), vehicle: methylcellulose (MC) 91 % of control

O=C(CBr)Nc1nccs1
inactive: dose: 3.12 mg/kg/injection, schedule: Q01DX009 (ip), vehicle: saline 98 % of control | dose: 6.25 mg/kg/injection, schedule: Q01DX009 (ip), vehicle: saline 93 % of control | dose: 12.5 mg/kg/injection, schedule: Q01DX009 (ip), vehicle: saline 104 % of control | dose: 12.5 mg/kg/injection, schedule: Q04DX003 (ip), vehicle: saline 98 % of control | [4] 94 % of control

CCN(CC)c1ccc(N=C2C=C(C(=O)Nc3cccc(Cl)c3)C(=O)c3ccccc32)c(C)c1
inactive: dose: 100.0 mg/kg/injection, schedule: Q01DX001 (ip), vehicle: other 92 % of control | dose: 200.0 mg/kg/injection, schedule: Q01DX001 (ip), vehicle: other 92 % of control | dose: 400.0 mg/kg/injection, schedule: Q01DX001 (ip), vehicle: other 96 % of control

COc1cccc(C(N)=O)c1
inactive: dose: 100.0 mg/kg/injection, schedule: Q04DX002 (ip), vehicle: Klucel (hydroxypropylcellulose) (HPC) 97 % of control | dose: 200.0 mg/kg/injection, schedule: Q04DX002 (ip), vehicle: Klucel (hydroxypropylcellulose) (HPC) 97 % of control | dose: 400.0 mg/kg/injection, schedule: Q04DX002 (ip), vehicle: Klucel (hydroxypropylcellulose) (HPC) 104 % of control

CCCCNC(=O)c1cc(Cl)cc(Cl)c1Br
inactive: dose: 100.0 mg/kg/injection, schedule: Q01DX001 (ip), vehicle: saline with Tween-80 91 % of control | dose: 200.0 mg/kg/injection, schedule: Q01DX001 (ip), vehicle: saline with Tween-80 90 % of control | dose: 400.0 mg/kg/injection, schedule: Q01DX001 (ip), vehicle: saline with Tween-80 93 % of control

Fc1cc(N(CCCl)CCCl)ccc1CNCCCNCc1ccc(N(CCCl)CCCl)cc1F
inactive: dose: 50.0 mg/kg/injection, schedule: Q01DX001 (ip), vehicle: carboxymethylcellulose (CMC) 93 % of control

Oc1ccccc1OCc1ccccc1
inactive: dose: 50.0 mg/kg/injection, schedule: Q04DX003 (ip), vehicle: Klucel (hydroxypropylcellulose) (HPC) 92 % of control | dose: 100.0 mg/kg/injection, schedule: Q01DX009 (ip), vehicle: Klucel (hydroxypropylcellulose) (HPC) 101 % of control | [8] 94 % of control | dose: 200.0 mg/kg/injection, schedule: Q01DX009 (ip), vehicle: Klucel (hydroxypropylcellulose) (HPC) 97 % of control | [9] 92 % of control | dose: 400.0 mg/kg/injection, schedule: Q01DX009 (ip), vehicle: Klucel (hydroxypropylcellulose) (HPC) 102 % of control | [10] 100 % of control

O=C(O)c1nccc2ccccc12
inactive: [5] 96 % of control | dose: 200.0 mg/kg/injection, schedule: Q04DX003 (ip), vehicle: saline 112 % of control | dose: 400.0 mg/kg/injection, schedule: Q04DX003 (ip), vehicle: saline 90 % of control

O=C(CCCC(=O)N=Nc1c(Cl)c(O)c2ccccc2c1O)N=Nc1c(Cl)c(O)c2ccccc2c1O
inactive: [1] 118 % of control | [2] 101 % of control | [3] 103 % of control

COC(=O)/C=C(\C(=O)OC)c1c(-c2ccccc2)[nH]c2ccccc12
inactive: dose: 75.0 mg/kg/injection, schedule: Q01DX001 (ip), vehicle: carboxymethylcellulose (CMC) 92 % of control | dose: 150.0 mg/kg/injection, schedule: Q01DX001 (ip), vehicle: carboxymethylcellulose (CMC) 89 % of control | dose: 300.0 mg/kg/injection, schedule: Q01DX001 (ip), vehicle: carboxymethylcellulose (CMC) 94 % of control
